Source: patent US20190017017A1, “USE OF VASCULAR CELLS TO CREATE THE CONVENTIONAL OUTFLOW TRACT” (THE RESEARCH FOUNDATION FOR THE STATE UNIVERSITY OF NEW YORK, priority 2016, published 2019)

Columns and labels:
[1] = tested on: HTM cells; assay: Outflow facility of porous scaffolds bearing cultured HTM cells (perfusion); type: cell-based, human; settings: FIG. 15
From the text: TM cells and SC cell-like cells co-cultured on a porous scaffold in accordance with aspects of the present disclosure may serve as a system to model conventional outflow tract function, physiology, and pathophysiology. FIG. 13A is a diagrammatic representation of a testing apparatus for performing perfusion-related testing in accordance with aspects of the present disclosure. A syringe pump or other pressure source may feed into a holder for a porous scaffold, with TM and SC cell-like cells co-cultured thereupon, with pressure controlled and measured by a pressure transducer. The pressure across the porous scaffold and cells, and other aspects related to pressure such as through-flow, flow rate, resistance to flow, hydraulic conductivity, and other indicia of conventional outflow tract function may be measured. For example, fluids can be perfused across the co-culture-bearing scaffold and aspects of fluid mechanics measured as an indication of conventional outflow tract function. […] Aspects of membrane pressure, outflow dynamics, and cellular function can similarly be measured under different conditions known or hypothesized to replicate disease states, or lack thereof, or conditions known or believed to prevent, ameliorate, or cure disease or pathological states. In an example, fluid may be perfused across a porous scaffold bearing co-cultured TM and SC cell-like cells and effects of transmembrane pressure, flow rate, through-flow, resistance to flow, hydraulic conductivity, vacuole dynamics, pore formation, or outflow facility of the co-cultured TM cells and SC cell-like cells may be measured. […] Other aspects of cellular physiology or function may similarly be measured, in response or relation to perfusion or otherwise. […]
A perfusion apparatus was used as described in publicly available literature and in accordance with the apparatus illustrated in FIG. 13. […] Vacuole/pore size were measured using the embedded LEO electron microscopy image software. […]

[2] = tested on: HTM/HMVEC constructs; assay: qPCR and western blot of outflow pathway markers in co-cultured constructs exposed to pharmacologic agents; type: cell-based, human; settings: qPCR and western blotting; FIGS. 14A-E
Experimental: Total RNA was extracted from samples using an RNeasy Plus Mini kit (Qiagen Inc., Valencia, Calif.). RNA concentrations were determined using a NanoDrop spectrophotometer. 50 ng of RNA per sample was used for each qPCR experiments. qPCR was carried out using TAQMAN RNA-TO-CT™ 1-Step Kit (Applied Biosystems, Carlsbad, Calif.) and performed on an AB StepOnePlus Real Time PCR system (Life Technologies, Carlsbad, Calif.) using primers for αB-crystallin, PECAM-1, fibulin-2, collagen type IV, fibronectin, laminin and GAPDH.
The temperature profile was as follows: 48° C. for 15 min (reverse transcription step), followed by an enzyme activation step of 95° C. for 10 min, 40 cycles of 15 s denaturation at 95° C. and 1 min anneal/extend at 60° C. Relative quantitation data analysis was performed using the comparative quantification method, ΔΔCt, with GAPDH as the endogenous reference. […]
FIGS. 14A-E show gene (left panels, qPCR) and protein (right, western blots) expression patterns of co-cultured HTM/HVEC constructs. HTM-HMVEC and HTM-HSC constructs were contacted with pharmacologic agents that regulate outflow and expression levels of various genes and proteins (α-SMA, collagen IV, fibronectin, myocillin) measured by qPCR and western blotting. […]

Molecule | effect on outflow facility [1] | response (expression of α-SMA, collagen IV, fibronectin, myocillin) of HTM-HMVEC constructs compared with HTM-HSC constructs [2]
C[C@@H](N)[C@H]1CC[C@H](C(=O)Nc2ccncc2)CC1 [Y27632] | stimulate | responds similar
TGFβ | inhibit | responds similar
CC(=O)OCC(=O)[C@@]1(O)CC[C@H]2[C@@H]3CCC4=CC(=O)C=C[C@]4(C)[C@H]3C(=O)C[C@@]21C [prednisone acetate] | inhibit | 
